Results on 100 compounds are retold here after ChEMBL document CHEMBL3507680, “University of Dundee, Gates Library screen for HepG2 cell viability”.

A short description of the data set: Human HepG2 cell viability assay in 384 well format. The conditions noted are these: HepG2 cells, read-out: Inhibition. On the set-up: dose 125 nL, time 70.5 hour; cytotoxicity at 70.5 h: concentration not given beside the values. In kind it is toxicity, cell-based.
As to `O=C(Nc1ccc2c(c1)C(=O)NC2=O)c1ccc(Cl)s1`, the cytotoxicity at 70.5 h was -10.9%.

As to `CC(C)(C)n1ncc2c(=O)n(CC(=O)NCc3ccco3)cnc21`, the cytotoxicity at 70.5 h was -11.6%.

For `CC(C)(C)n1ncc2c(=O)n(CC(=O)NCCc3ccccc3)cnc21`, the cytotoxicity at 70.5 h is -13.5%.

In the case of `Cc1c(C)n2c(SCC(=O)N3CCCCCC3)nnc2[nH]c1=O`, the cytotoxicity at 70.5 h is -7.58%.

`O=C(Nc1ccc(Br)cc1F)c1ccc(N2CCCCC2)nn1`: the cytotoxicity at 70.5 h is -3.25%.

Consider `Cc1ccc(NC(=O)c2ccc(N3CCCCC3)nn2)c(Cl)c1`, for which the cytotoxicity at 70.5 h worked out at 3.33%.

Turning to `O=C(Nc1cc(C(F)(F)F)ccc1Cl)c1ccc(N2CCOCC2)nn1`, the cytotoxicity at 70.5 h was -0.689%.

With `CSc1ccccc1NC(=O)c1ccc(N2CCOCC2)nn1`, the cytotoxicity at 70.5 h was -3.96%.

In the case of `CN1C(=O)c2cccc(NC(=O)c3ccc4c(c3)OCCO4)c2C1=O`, the cytotoxicity at 70.5 h came to 21.1%.

Regarding `COCCn1/c(=N\C(=O)CN(C)S(C)(=O)=O)sc2cccc(F)c21`, the cytotoxicity at 70.5 h was found to be 20.2%.

Consider `COCCn1/c(=N\C(=O)CN(C)S(C)(=O)=O)sc2cc(Cl)ccc21`, for which the cytotoxicity at 70.5 h was determined as 17%.

For the compound `COCCn1/c(=N\C(=O)CN(C)S(C)(=O)=O)sc2cc(OC)ccc21`, the cytotoxicity at 70.5 h was determined as 17.2%.

On to `CCSc1nc(N)c(NC(=O)c2ccc(OC)c(OC)c2)c(=O)[nH]1`, for which the cytotoxicity at 70.5 h is 11.2%.

Regarding `CCCSc1nc(N)c(NC(=O)c2ccc(OC)c(OC)c2)c(=O)[nH]1`, the cytotoxicity at 70.5 h was determined as 12%.

As for `CC(C)CSc1ccc(-n2cccn2)nn1`, the cytotoxicity at 70.5 h worked out at 27.6%.

`COc1ccc(CCNC(=O)NC2CC(=O)N(c3ccccc3)C2)cc1` (stereo not given): the cytotoxicity at 70.5 h turned out to be 49%.

In the case of `OC1CN(c2nc3c(C(F)(F)F)cccc3s2)C1`, the cytotoxicity at 70.5 h was 12.2%.

Regarding `O=c1n(Cc2ccc(C(F)(F)F)cc2)nc2ncccn12`, the cytotoxicity at 70.5 h is 24.3%.

Turning to `CC(=O)CSc1nc2c(cnn2CCO)c(=O)[nH]1`, the cytotoxicity at 70.5 h was found to be 21.3%.

On to `Cc1cc(NC(=O)C(C)C)n(-c2nc(C)c(C)c(=O)[nH]2)n1`, for which the cytotoxicity at 70.5 h worked out at 56.9%.

Take `CNC(=O)Cn1c(CO)cnc1SCc1ccccc1Cl`: the cytotoxicity at 70.5 h turned out to be 16.9%.

Regarding `NC(=O)Cn1c(CO)cnc1SCc1ccccc1Cl`, the cytotoxicity at 70.5 h stood at 18.9%.

In the case of `CN1C(=O)C(C)(C)COc2ccc(NS(=O)(=O)Cc3ccccc3)cc21`, the cytotoxicity at 70.5 h was determined as 5.22%.

Turning to `COCC(=O)Nc1ccc2c(c1)CN(C(=O)c1ccco1)CC2`, the cytotoxicity at 70.5 h was 23.8%.

Regarding `Cc1cc(C(=O)N2CCN(c3nc4c(F)cccc4s3)CC2)no1`, the cytotoxicity at 70.5 h is -7.99%.

As to `Cc1cc(C(=O)N2CCN(c3nc4c(C(C)C)cccc4s3)CC2)no1`, the cytotoxicity at 70.5 h amounted to 3.44%.

For `Cc1cnc2c(c1NCc1ccc3c(c1)OCO3)c(=O)n(C)c(=O)n2C`, the cytotoxicity at 70.5 h turned out to be 46.5%.

As for `Cc1cnc2c(c1NCc1ccccn1)c(=O)n(C)c(=O)n2C`, the cytotoxicity at 70.5 h is -11.2%.

Consider `CCc1cnc2c(c1NCc1ccc(OC)cc1)c(=O)n(C)c(=O)n2C`, for which the cytotoxicity at 70.5 h amounted to 3.22%.

As to `CCCNC(=O)Cn1nc(C)c2cnn(C(C)(C)C)c2c1=O`, the cytotoxicity at 70.5 h is 19.1%.

Turning to `O=C(CC1CSc2nccc(=O)n21)NCc1cc(-c2ccco2)on1` (stereo not given), the cytotoxicity at 70.5 h was -11.9%.

Consider `Cc1cc(=O)n2c(n1)SCC2CC(=O)NCc1cc(-c2ccco2)on1` (stereo not given), for which the cytotoxicity at 70.5 h is -9.17%.

As for `CCCc1cc(=O)[nH]c2nnc(SCC(=O)NCCc3ccccc3)n12`, the cytotoxicity at 70.5 h was -5.81%.

For `Cc1ccccc1-n1ncc2c(=O)n(CCN3CCCC3)cnc21`, the cytotoxicity at 70.5 h is 26.8%.

As to `CN1C(=O)c2cccc(NC(=O)c3cccc(S(C)(=O)=O)c3)c2C1=O`, the cytotoxicity at 70.5 h is -4.72%.

In the case of `CCCNC(=O)Cn1c(-n2nc(C)cc2C)nc(CCC)cc1=O`, the cytotoxicity at 70.5 h stood at 3.03%.

As to `O=C(CSC1=NS(=O)(=O)c2cc(Cl)ccc2N1)c1ccccc1`, the cytotoxicity at 70.5 h was 23.9%.

`CCCc1cc(=O)[nH]c(SCc2ccccn2)n1`: the cytotoxicity at 70.5 h was -2.16%.

In the case of `CCCNC(=O)Cn1cc(OC)c(=O)cc1CSc1nc(C)cc(C)n1`, the cytotoxicity at 70.5 h was -13.1%.

With `O=c1nc(SCc2ccncc2)c2c(n1CCO)CCC2`, the cytotoxicity at 70.5 h was -0.878%.

`O=c1nc(SCc2ccc(Cl)cc2)c2c(n1CCO)CCC2`: the cytotoxicity at 70.5 h was determined as 20.9%.

Consider `COc1ccc(NC(=O)Cn2nc(C)c(C(C)=O)c2C)cc1`, for which the cytotoxicity at 70.5 h turned out to be 2.67%.

As for `Cc1ccc(S(=O)(=O)N(C)c2ccsc2C(=O)NCC(C)C)cc1`, the cytotoxicity at 70.5 h turned out to be 45.4%.

Regarding `CCCC(=O)NC1CCN(c2ccccc2S(=O)(=O)CC)CC1`, the cytotoxicity at 70.5 h was determined as 17.6%.

Consider `CCS(=O)(=O)c1ccccc1N1CCC(NC(=O)C(C)C)CC1`, for which the cytotoxicity at 70.5 h is 5.03%.

For the compound `Cc1nn(C)c(C)c1C1CCCN1CC(=O)Nc1cc(C(C)C)no1` (stereo not given), the cytotoxicity at 70.5 h is -3.36%.

For `Cc1cc(NC(=O)CN2CCCC2c2c(C)nn(C)c2C)on1` (stereo not given), the cytotoxicity at 70.5 h is -2.37%.

On to `CCc1nc(C2CCCN(C(=O)c3cccnc3O)C2)no1` (stereo not given), for which the cytotoxicity at 70.5 h is -0.758%.

For the compound `O=C(NCC1CCS(=O)(=O)C1)N1CCN(c2cnccn2)CC1` (stereo not given), the cytotoxicity at 70.5 h stood at 3.28%.

As to `CN1C(=O)CN(C(=O)c2ccc(=O)n(C)c2)c2ccccc21`, the cytotoxicity at 70.5 h came out at 1.56%.

On to `Cc1csc(N2CCN(C(=O)C(C)n3cncn3)CC2)n1` (stereo not given), for which the cytotoxicity at 70.5 h was found to be 0.112%.

Consider `CC(C)C(C(=O)N1CCCN(c2nccs2)CC1)n1cncn1` (stereo not given), for which the cytotoxicity at 70.5 h turned out to be 1.24%.

As to `Cc1cnn(CC2CN(Cc3nc(C)c(C)o3)CCO2)c1` (stereo not given), the cytotoxicity at 70.5 h worked out at 1.07%.

As to `CCn1ccnc1CN1CCN(C(C)C(=O)N2CCCCCC2)CC1` (stereo not given), the cytotoxicity at 70.5 h is -1.03%.

As for `Cc1nc(CN(C)C2CCN(CC3CCOCC3)C2)no1` (stereo not given), the cytotoxicity at 70.5 h was -2.15%.

Regarding `CC(C(=O)N1CCCCCC1)N1CCN(Cc2nccn2C)CC1` (stereo not given), the cytotoxicity at 70.5 h was -4.84%.

With `Cc1nc(CN(C)C2CCN(CC3CCC3)C2)no1` (stereo not given), the cytotoxicity at 70.5 h is -4.98%.

`O=C(CCn1nc(-c2cccs2)oc1=O)Nc1cccc(F)c1`: the cytotoxicity at 70.5 h was -6.28%.

As for `CCOc1ncccc1CNC(=O)NC1CCOc2ccccc21` (stereo not given), the cytotoxicity at 70.5 h was -4.63%.

Take `Cc1ccc(-n2nnc(C(=O)NC(C)C)c2C2CC2)cc1`: the cytotoxicity at 70.5 h was -4.09%.

Turning to `O=C(C1CCCCC1)N1CCN(Cc2nc(-c3ccco3)no2)CC1`, the cytotoxicity at 70.5 h is -5.01%.

Take `CC(C)c1ncncc1C(=O)N1CCN(Cc2cccnc2)CC1`: the cytotoxicity at 70.5 h was -6.82%.

With `CCn1ccnc1CN1CCN(C(C)C(=O)N2CCCC2)CC1` (stereo not given), the cytotoxicity at 70.5 h is -3.5%.

For `Cc1cnn(CC2CN(Cc3nnc(-c4ccccc4)o3)CCO2)c1` (stereo not given), the cytotoxicity at 70.5 h was -8.48%.

For `COC(=O)CCNC(=O)c1nnn(-c2ccc(C)cc2)c1C1CC1`, the cytotoxicity at 70.5 h turned out to be 16.4%.

On to `Cc1nc2cc(C(=O)N3CCCC(n4ccnc4)C3)ccc2n1C` (stereo not given), for which the cytotoxicity at 70.5 h is -2.44%.

For `CC(=O)Nc1nc(CN2CCn3c(nnc3C(C)C)C2)cs1`, the cytotoxicity at 70.5 h is -4.17%.

Turning to `O=C(c1cc2c(s1)CCOC2)N1CCCC1Cn1cccn1` (stereo not given), the cytotoxicity at 70.5 h was -8.49%.

Take `CS(=O)(=O)NC(=O)c1nnn(-c2cccc(F)c2)c1C1CC1`: the cytotoxicity at 70.5 h is -7.64%.

On to `COc1cccc(C(=O)NS(=O)(=O)c2cccc(C#N)c2)c1`, for which the cytotoxicity at 70.5 h is -6.99%.

With `Cc1ccccc1C1(C(=O)N2CCCC(n3cncn3)C2)CC1` (stereo not given), the cytotoxicity at 70.5 h is -10.8%.

As to `Cc1cnn(CC2CN(Cc3nc(C4CC4)no3)CCO2)c1` (stereo not given), the cytotoxicity at 70.5 h was -6.98%.

On to `Cc1cnn(CC2CN(Cc3nnc(C(C)C)o3)CCO2)c1` (stereo not given), for which the cytotoxicity at 70.5 h was -6.07%.

On to `CCc1nnc(CN2CCOC(Cn3cc(C)cn3)C2)o1` (stereo not given), for which the cytotoxicity at 70.5 h was -6.6%.

As for `COc1cc(C2(C(=O)N3CCCC(n4cncn4)C3)CC2)ccc1C` (stereo not given), the cytotoxicity at 70.5 h is -7.1%.

`O=C(c1ccc2c(c1)COC2)N1CCCC(n2cncn2)C1` (stereo not given): the cytotoxicity at 70.5 h is -4.03%.

As for `CC(NC(=O)CCCC(=O)c1cccs1)c1nnc2n1CCC2` (stereo not given), the cytotoxicity at 70.5 h was -9.34%.

`O=C(c1cc(C2CC2)[nH]n1)N1CCN(Cc2ccc3c(c2)OCO3)CC1`: the cytotoxicity at 70.5 h is -2.82%.

For the compound `O=C(NCCNc1ncccn1)C1CCN(C(=O)c2ccoc2)CC1`, the cytotoxicity at 70.5 h is -3.53%.

Consider `CCCC(=O)N1CCC(C(=O)NCCNc2ncccn2)CC1`, for which the cytotoxicity at 70.5 h is 0.692%.

For `CC(NC(=O)CCc1cccs1)c1nnc2n1CCCCC2` (stereo not given), the cytotoxicity at 70.5 h stood at 8.51%.

In the case of `Cc1nnc2n1CCN(Cc1csc(-c3ccsc3)n1)C2`, the cytotoxicity at 70.5 h is -5.37%.

In the case of `Cc1ncc2c(n1)CN(Cc1nc(-c3cccs3)no1)CC2`, the cytotoxicity at 70.5 h came out at 9.81%.

Turning to `Cc1nn(C)c(C)c1C1CCCN1Cc1nc(-c2ccccn2)no1` (stereo not given), the cytotoxicity at 70.5 h was -5.05%.

As to `O=C(CN1CC(n2cccn2)C1)NCCc1ccc(F)cc1`, the cytotoxicity at 70.5 h is -1.33%.

`CN1CCOC(CN(C(=O)CCCn2cccn2)c2nccs2)C1` (stereo not given): the cytotoxicity at 70.5 h was -1.25%.

In the case of `CN1CCOC(CN(C(=O)CCc2ccco2)c2nccs2)C1` (stereo not given), the cytotoxicity at 70.5 h amounted to 10.3%.

Turning to `CC(C)c1noc(CN2CCN(C(=O)c3ccncc3F)CC2)n1`, the cytotoxicity at 70.5 h was -9.24%.

As for `Cc1ccc(CC(=O)N(CC2CN(C)CCO2)c2nccs2)cn1` (stereo not given), the cytotoxicity at 70.5 h was determined as 11.5%.

Take `Cc1csc(N2CCN(CC(=O)Nc3cccnc3)CC2C)n1` (stereo not given): the cytotoxicity at 70.5 h was found to be 2.59%.

On to `Cc1cc(C)n(CC2CCCN2CCCc2nc3ccccc3o2)n1` (stereo not given), for which the cytotoxicity at 70.5 h was -1.67%.

With `CC(c1nc(C2CC2)no1)N1CCN(CCCN2CCCC2=O)CC1` (stereo not given), the cytotoxicity at 70.5 h was found to be 3.52%.

Regarding `Cc1nnc(CN(C)C2CCN(Cc3nnc(C4CCC4)o3)C2)n1C` (stereo not given), the cytotoxicity at 70.5 h came to 1.37%.

Turning to `Cc1nc(CN2CCC(N(C)Cc3nnc(C4CC4)n3C)C2)oc1C` (stereo not given), the cytotoxicity at 70.5 h came out at 10.4%.

As to `Cc1ccc(NC2CCN(C(=O)C(C)n3cncn3)CC2)nn1` (stereo not given), the cytotoxicity at 70.5 h was -0.916%.

As to `COc1cccc(CNCc2ccnc(N3CCOCC3)c2)c1OC`, the cytotoxicity at 70.5 h was -4.37%.

As to `O=C(Nc1nc2c(s1)CNCC2)C1CC1`, the cytotoxicity at 70.5 h came out at 26.7%.

Regarding `Brc1cccnc1OC1CCNCC1`, the cytotoxicity at 70.5 h stood at 23.3%.

Turning to `CCCC(=O)N(CCCN1CCOCC1)c1nc2c(Cl)cccc2s1`, the cytotoxicity at 70.5 h is 1.41%.

For the compound `Cc1cc(C)c(N(CC(O)CNCc2ccccc2)S(C)(=O)=O)c(C)c1` (stereo not given), the cytotoxicity at 70.5 h is -6.51%.
